# Results taken from US20180333371A1, “CURCUMIN AND RESVERATROL FOR CHRONIC INFLAMMATION” (DSM IP Assets B.V., priority 2015, published 2018).
# What was measured:
# Format in all cases: cell-based, Sprague Dawley rat
# [1] = tested on: IL-1β release by primary microglia; assay: LPS-stimulated IL-1β release by primary microglia (multiplex ELISA); conditions: 0-250 μM, FIG. 2C
# Source text: (§1) Microglial Harvesting and Culture. All experiments involving animals were approved by the Animal Care and Use Committee established at Bolder Biopath, Inc. (Boulder, Colo.). Primary microglial cultures were derived from neocortical tissue of E22 Sprague Dawley rat pups taken from timed-pregnant dams (Charles River) by Caesarean section. Briefly, the pup brain cortices were isolated in Hibernate EB (Brain Bits; Springfield, Ill.). The samples were then transferred to Hibernate E (without Ca; Brain Bits; Springfield, Ill.) and washed twice with fresh Hibernate E (−Ca). The tissue was next digested in Hibernate E (−Ca) containing 0.5% trypsin (Sigma) for 15 min at 37° C.). […]
# (§2) The tissue was triturated into single cells, and the suspension was filtered through a 70-μm cell strainer. Cell numbers and viability were consistently greater than 95% as determined using trypan blue (0.4%; Fisher Scientific) and a Countess automated cell counter (Life Technologies, Grand Island, N.Y.). […]
# (§3) Cell Stimulation and Cytokine Assays. […] The concentration of prostaglandin E2 (PGE2) in the supernatant was measured by ELISA (Cayman Chemical). The concentrations of tumor necrosis factor-α (TNF-α), interleukin-1β (IL-1β) and interleukin-6 (IL-6) in the supernatant were determined by multiplex ELISA (Quansys Biosciences; Logan, Utah). […]
# [2] = tested on: TNF-α release by primary microglia; assay: LPS-stimulated TNF-α release by primary microglia (multiplex ELISA); conditions: 0-250 μM, FIG. 2B
# Source text: as §1, §2, §3
# [3] = tested on: PGE2 release from primary microglia; assay: Synergism analysis (median-effect principle, combination index, ComboSyn) of PGE2 release inhibition
# [4] = tested on: PGE2 release from primary microglia; assay: LPS-stimulated PGE2 release by primary microglia (ELISA); conditions: for effect on PGE2 release: FIG. 2A
# Source text: Microglial Harvesting and Culture. All experiments involving animals were approved by the Animal Care and Use Committee established at Bolder Biopath, Inc. (Boulder, Colo.). Primary microglial cultures were derived from neocortical tissue of E22 Sprague Dawley rat pups taken from timed-pregnant dams (Charles River) by Caesarean section. Briefly, the pup brain cortices were isolated in Hibernate EB (Brain Bits; Springfield, Ill.). The samples were then transferred to Hibernate E (without Ca; Brain Bits; Springfield, Ill.) and washed twice with fresh Hibernate E (−Ca). The tissue was next digested in Hibernate E (−Ca) containing 0.5% trypsin (Sigma) for 15 min at 37° C.). The overlying solution was removed, and the trypsin reaction was quenched by washing the settled tissue with Hibernated E (—Ca) containing 20% heat-inactivated fetal bovine serum (FBS; Hyclone).
# The tissue was triturated into single cells, and the suspension was filtered through a 70-μm cell strainer. Cell numbers and viability were consistently greater than 95% as determined using trypan blue (0.4%; Fisher Scientific) and a Countess automated cell counter (Life Technologies, Grand Island, N.Y.). Cells were seeded into T-75 flasks (VWR) at 8×10^6 cells/flask in HiGlutaXL Dulbecco's Modified Eagle Medium (DMEM, 4.5 g/L glucose, plus glutamine; HyClone) containing 100 μg/mL penicillin, 100 μg/mL streptomycin, 0.5 ng/mL amphotericin (CellnTec) and 1 mM sodium pyruvate. The media was changed on day 3 in vitro, and the cells were fed every 4-5 days while in the flasks. At day 14 in vitro, mouse granulocyte macrophage colony stimulating factor (mGM-CSF; R&D Systems; Minneapolis, Minn.) was added at a final concentration of 5 ng/mL to stimulate microglial differentiation.
# as §3
structure (smiles),measurement,setting,value
"Oc1ccc(C=Cc2cc(O)cc(O)c2)cc1 [Resveratrol, resveratrol]",significant effects on IL-1β release,[1],not detected
same,significant effects on TNF-α release,[2],not detected
same,Dose reduction index (DRI),"[3]; in combination resveratrol 2.25 μM + curcumin C3 7 nM, FIG. 4",42.76
same,decrease in concentration that would still have a synergistic effect in combination,[3]; relative to 2.25 μM resveratrol / 7 nM curcumin C3,43%
same,effect on PGE2 release,[4]; 75 μM,significantly inhibited
same,effect on PGE2 release,[4]; 250 μM,significantly inhibited
same,IC50,"[4]; Rattus norvegicus, FIG. 3",2250 nM
